In patent US8841296B2, “Substituted 1, 4-dioxa-8-azaspiro[4,5]decanes useful as fungicides and a process for the preparation thereof” (Council of Scientific and Industrial Research, Anusandhan …, priority 2009, dated 2014):

What was measured:
grape powdery mildew = assay: Field experiment against grape powdery mildew; format: in vivo, grapevine; settings: for PDI on Bunches 11 DAIIS / % Disease Control (11 DAIIS): 11 days after 2nd spray; for % Disease Control (11 DAIIS) / % Disease Control (15 DAIIS): over untreated check; for PDI on Bunches 15 DAIIS / % Disease Control (15 DAIIS): 15 days after 2nd spray
Procedure: A field experiment was conducted on pruned grapevine, in a randomized block design with ten treatments (Table No 1) and three replications. Two sprays were given at an interval of 10 days. The plot size was eight vines per treatment/replication. The spraying was done by Knapsack sprayer using 850 L spray volume/hectare. […] Based on the observations percent incidence was worked out.

grape downy mildew = assay: Field experiment against grape downy mildew; format: in vivo, grapevine
Procedure: A field experiment was conducted on pruned grapevine, in a randomized block design with ten treatments (Table No. 3) and three replications. Two sprays were given at an interval of 6 days starting at 28 days after pruning. The plot size was ten vines per treatment/replication. The spraying was done by Knapsack sprayer using 1000 L spray volume/hectare. […] Based on the observations, percent disease incidence was worked out. The data was subjected to statistical analysis.

Rhizoctonia solani = assay: Growth inhibition plate assay, R. solani; format: cell-based; settings: ND = Not Detectable, read-out: Plate assay inhibition, P1 R. solani
Colletotrichum capsici = assay: Growth inhibition plate assay, C. capsici; format: cell-based; settings: ND = Not Detectable; for inhibition at 25 ppm: Colletotrichum truncatum, read-out: Plate assay inhibition, P2 C. capsici
Drechslera oryzae = assay: Growth inhibition plate assay, D. oryzae; format: cell-based; settings: ND = Not Detectable; for inhibition at 25 ppm: Bipolaris oryzae, read-out: Plate assay inhibition, P3 D. oryzae, 25 ppm
Fusarium oxysporum = assay: Growth inhibition plate assay, F. oxysporum; format: cell-based; settings: ND = Not Detectable; for inhibition at 25 ppm: Fusarium oxysporum, read-out: Plate assay inhibition, P4 F. oxysporum
Pyrricularia oryzae = assay: microbe, parasite or virus in culture; format: cell-based; settings: ND = Not Detectable; for inhibition at 25 ppm: Pyricularia oryzae, read-out: Plate assay inhibition, P5 P. oryzae, 25 ppm
Pythium aphanidermatum = assay: Growth inhibition plate assay, P. aphanidermatum; format: cell-based; settings: ND = Not Detectable, read-out: Plate assay inhibition, P6 P. aphanidermatum
[1] = system: plant pathogenic fungi (all the test pathogens); format: cell-based; settings: for fungicidal activity against plant pathogenic fungi: result in words
rose powdery mildew = assay: Field experiment against rose powdery mildew; format: in vivo; settings: 4 days after spray; for Rose PM % Control: over untreated check
Excerpt: Two sprays were given at an interval of 4 days. The spraying was done by Foot operated sprayer using 1200 L spray volume/hectare. […] Based on the observations percent incidence was worked out. The data was subjected to statistical analysis.

Magnaporthe grisea = format: cell-based
[2] = 20% EC @ 400 g a.i./ha, 7 days after 2nd spray
[3] = 20% EC @ 400 g a.i./ha, 7 days after 2nd spray, over untreated check
[4] = 20% EC @ 400 g a.i./ha, 10 days after 2nd spray
[5] = 20% EC @ 400 g a.i./ha, 10 days after 2nd spray, over untreated check
[6] = 20% EC @ 800 g a.i./ha, 7 days after 2nd spray
[7] = 20% EC @ 800 g a.i./ha, 7 days after 2nd spray, over untreated check
[8] = 20% EC @ 800 g a.i./ha, 10 days after 2nd spray
[9] = 20% EC @ 800 g a.i./ha, 10 days after 2nd spray, over untreated check

## CO/C=C(/C(=O)OC)c1ccccc1Oc1cc(Oc2ccccc2C#N)ncn1 [Azoxystrobin, reference compound]
Grape powdery mildew; 25 SC @ 212 g a.i./ha
  PDI on Bunches 11 DAIIS: 8.68%
  % Disease Control (11 DAIIS): 70.97%
  PDI on Bunches 15 DAIIS: 5.92%
  % Disease Control (15 DAIIS): 77.34%
Grape downy mildew; 23 SC @ 230 g a.i./ha, 7 days after 2nd spray
  Grape Downy mildew incidence 7 DAIIS: 3.32%
Grape downy mildew; 23 SC @ 230 g a.i./ha, 7 days after 2nd spray, over untreated check
  % Control (7 DAIIS): 80.29%
Grape downy mildew; 23 SC @ 230 g a.i./ha, 10 days after 2nd spray
  Grape Downy mildew incidence 10 DAIIS: 2.7%
Grape downy mildew; 23 SC @ 230 g a.i./ha, 10 days after 2nd spray, over untreated check
  % Control (10 DAIIS): 88.14%

## Clc1cc(Br)ccc1OCC1COC2(CCN(CCc3ccccc3)CC2)O1 (stereo not drawn) [Compound 2, 2-(4-bromo-2-chlorophenoxy)methyl-8-phenethyl-1,4-dioxa-8-azaspiro[4,5]decane]
Rhizoctonia solani
  inhibition at 25 ppm: 90 to 100%
Colletotrichum capsici
  inhibition at 25 ppm: 90 to 100%
Drechslera oryzae
  inhibition at 25 ppm: 90 to 100%
Fusarium oxysporum
  inhibition at 25 ppm: 90 to 100%
Pyrricularia oryzae
  inhibition at 25 ppm: 90 to 100%
Pythium aphanidermatum
  inhibition at 25 ppm: 90 to 100%
[1]
  inhibition against all the test pathogens: 90-100%
  fungicidal activity against plant pathogenic fungi: active against all pathogens
Grape powdery mildew; 20% EC @ 340 g a.i./ha
  PDI on Bunches 11 DAIIS: 12.96%
  % Disease Control (11 DAIIS): 56.67%
  PDI on Bunches 15 DAIIS: 10.23%
  % Disease Control (15 DAIIS): 60.84%
Grape powdery mildew; 20% EC @ 510 g a.i./ha
  PDI on Bunches 11 DAIIS: 13.6%
  % Disease Control (11 DAIIS): 54.53%
  PDI on Bunches 15 DAIIS: 9.6%
  % Disease Control (15 DAIIS): 63.26%
Grape powdery mildew; 20% EC @ 680 g a.i./ha
  PDI on Bunches 11 DAIIS: 12.48%
  % Disease Control (11 DAIIS): 58.27%
  PDI on Bunches 15 DAIIS: 8.9%
  % Disease Control (15 DAIIS): 65.93%
Grape downy mildew; [2]
  Grape Downy mildew incidence 7 DAIIS: comparable with standard check fungicides
Grape downy mildew; 20% EC @ 400 g a.i./ha, 7 days after 2nd spray, listed as Cpd 2
  Grape Downy mildew incidence 7 DAIIS: 4.46%
Grape downy mildew; [3]
  % Control (7 DAIIS): 73.53%
Grape downy mildew; [4]
  Grape Downy mildew incidence 10 DAIIS: 7.58%
Grape downy mildew; [5]
  % Control (10 DAIIS): 66.72%
Grape downy mildew; [6]
  Grape Downy mildew incidence 7 DAIIS: comparable with standard check fungicides
Grape downy mildew; 20% EC @ 800 g a.i./ha, 7 days after 2nd spray, listed as Cpd 2
  Grape Downy mildew incidence 7 DAIIS: 2.77%
Grape downy mildew; [7]
  % Control (7 DAIIS): 83.56%
Grape downy mildew; [8]
  Grape Downy mildew incidence 10 DAIIS: at par with standard check fungicides
Grape downy mildew; 20% EC @ 800 g a.i./ha, 10 days after 2nd spray, listed as Cpd 2
  Grape Downy mildew incidence 10 DAIIS: 5.27%
Grape downy mildew; [9]
  % Control (10 DAIIS): 76.86%
Rose powdery mildew; 20% EC @ 720 g a.i./ha
  Rose PM % incidence 4 DAS: 36.83%
  Rose PM % Control: 28.52%

## c1ccc(CCN2CCC3(CC2)OCC(CN2CCOCC2)O3)cc1 (stereo not drawn) [Compound 3, 2-(morpholin-4-yl)methyl-8-phenethyl-1,4-dioxa-8-azaspiro[4,5]decane]
Rhizoctonia solani
  inhibition at 25 ppm: 70 to 80%
Drechslera oryzae
  inhibition at 25 ppm: 60 to 70%
Fusarium oxysporum
  inhibition at 25 ppm: 70 to 80%
Pyrricularia oryzae
  inhibition at 25 ppm: 40 to 50%

## Clc1ncc(COCC2COC3(CCN(CCc4ccccc4)CC3)O2)s1 (stereo not drawn) [Compound 4, 2-(2-chloro-5-thiazolyl)methoxymethyl-8-phenethyl-1,4-dioxa-8-azaspiro[4,5]decane]
Rhizoctonia solani
  inhibition at 25 ppm: 20 to 30%
Colletotrichum capsici
  inhibition at 25 ppm: 20 to 30%
Fusarium oxysporum
  inhibition at 25 ppm: 30 to 40%
Pyrricularia oryzae
  inhibition at 25 ppm: 30 to 40%
[1]
  inhibition against all the test pathogens: 20-30%

## c1ccc(CCN2CCC3(CC2)OCC(COCc2ccccc2)O3)cc1 (stereo not drawn) [Compound 5, 2-benzyloxymethyl-8-phenethyl-1,4-dioxa-8-azaspiro[4,5]decane]
Rhizoctonia solani
  inhibition at 25 ppm: 40 to 50%
Drechslera oryzae
  inhibition at 25 ppm: 60 to 70%
Fusarium oxysporum
  inhibition at 25 ppm: 40 to 50%
Magnaporthe grisea
  inhibition against M. grisea: 60-70%

## c1ccc(CCN2CCC3(CC2)OCC(CSc2ccccc2)O3)cc1 (stereo not drawn) [Compound 6, 8-phenethyl-2-phenylsulphanylmethyl-1,4-dioxa-8-azaspiro[4,5]decane]
Rhizoctonia solani
  inhibition at 25 ppm: 90 to 100%
Colletotrichum capsici; 25 ppm, listed as C6
  Plate assay inhibition, P2 C. capsici: 60-70%
Colletotrichum capsici
  inhibition at 25 ppm: 60 to 90%
Drechslera oryzae; 25 ppm, listed as C6
  Plate assay inhibition, P3 D. oryzae: 70-80%
Drechslera oryzae
  inhibition at 25 ppm: 60 to 90%
Fusarium oxysporum; 25 ppm, listed as C6
  Plate assay inhibition, P4 F. oxysporum: 70-80%
Fusarium oxysporum
  inhibition at 25 ppm: 60 to 90%
Pyrricularia oryzae; 25 ppm, listed as C6
  Plate assay inhibition, P5 P. oryzae: 80-90%
Pyrricularia oryzae
  inhibition at 25 ppm: 60 to 90%
Pythium aphanidermatum
  inhibition at 25 ppm: 50 to 60%
[1]
  fungicidal activity against plant pathogenic fungi: active against all pathogens
Grape powdery mildew; 20% EC @ 340 g a.i./ha
  PDI on Bunches 11 DAIIS: 11.89%
  % Disease Control (11 DAIIS): 60.24%
  PDI on Bunches 15 DAIIS: 10.6%
  % Disease Control (15 DAIIS): 59.43%
Grape powdery mildew; 20% EC @ 510 g a.i./ha
  % Disease Control (11 DAIIS): 66.26%
  PDI on Bunches 15 DAIIS: 9.1%
  % Disease Control (15 DAIIS): 65.17%
Grape powdery mildew; 20% EC @ 680 g a.i./ha
  % Disease Control (11 DAIIS): 69.6%
  % Disease Control (15 DAIIS): 70.72%
Grape downy mildew; [2]
  Grape Downy mildew incidence 7 DAIIS: 16.14%
Grape downy mildew; [3]
  % Control (7 DAIIS): 4.21%
Grape downy mildew; [4]
  Grape Downy mildew incidence 10 DAIIS: 24.88%
Grape downy mildew; [5]
  % Control (10 DAIIS): 0%
Grape downy mildew; [6]
  Grape Downy mildew incidence 7 DAIIS: 16.91%
Grape downy mildew; [7]
  % Control (7 DAIIS): 0%
Grape downy mildew; [8]
  Grape Downy mildew incidence 10 DAIIS: 17.7%
Grape downy mildew; [9]
  % Control (10 DAIIS): 22.3%
Rose powdery mildew; 20% EC @ 240 g a.i./ha
  Rose PM % incidence 4 DAS: 38.42%
  Rose PM % Control: 25.44%
Rose powdery mildew; 20% EC @ 480 g a.i./ha
  Rose PM % incidence 4 DAS: 29.45%
  Rose PM % Control: 42.84%
Rose powdery mildew; 20% EC @ 720 g a.i./ha
  Rose PM % incidence 4 DAS: 23.21%
  Rose PM % Control: 54.95%

## Fc1ccc(Cl)cc1NCC1COC2(CCN(Cc3cnc(Cl)s3)CC2)O1 (stereo not drawn) [Compound 8, N-(5-chloro-2-fluorophenyl)-N-{8-(2-chloro-5-thiazolyl)methyl-1,4-dioxa-8-aza-spiro[4,5]dec-2-yl}methanamine]
Fusarium oxysporum
  inhibition at 25 ppm: 20 to 30%
Pythium aphanidermatum
  inhibition at 25 ppm: 50 to 60%

## COc1ccc(C(=CC(=O)N2CCOCC2)c2ccc(Cl)cc2)cc1OC [Dimethomorph, reference compound]
Grape downy mildew; 50 WP @ 500 g a.i./ha, 7 days after 2nd spray
  Grape Downy mildew incidence 7 DAIIS: 2.39%
Grape downy mildew; 50 WP @ 500 g a.i./ha, 10 days after 2nd spray
  Grape Downy mildew incidence 10 DAIIS: 2.42%
Grape downy mildew; 500 g/ha, 168 h
  % Control (7 DAIIS): 85.81%
Grape downy mildew; 500 g/ha, 240 h
  % Control (10 DAIIS): 89.37%

## CCCCC(O)(Cn1cncn1)c1ccc(Cl)cc1Cl (stereo not drawn) [Hexaconazole, reference compound]
Grape powdery mildew; 5 E @ 42.50 g a.i./ha
  PDI on Bunches 11 DAIIS: 8.59%
  % Disease Control (11 DAIIS): 71.28%
  PDI on Bunches 15 DAIIS: 4.81%
  % Disease Control (15 DAIIS): 81.59%

## CO/N=C(/C(=O)OC)c1ccccc1COc1ccccc1C [Kresoxim methyl, reference compound]
Grape powdery mildew; 50 SC 425 g a.i./ha
  PDI on Bunches 11 DAIIS: 5.5%
  % Disease Control (11 DAIIS): 81.61%
  PDI on Bunches 15 DAIIS: 3.55%
  % Disease Control (15 DAIIS): 86.41%
